Literature values, collected in the CATMoS acute toxicity set (Mansouri et al. 2021).
Several values for one entry are separate records, joined by “and”; a condition that tells them apart may be missing. Equal entries are not always repeated.

Test: rat acute oral toxicity
Settings: in vivo

Structure (SMILES) | LD50
COc1cc(Cc2cnc(N)nc2N)cc(OC)c1OC | 200 mg/kg
CCCCCC[C@H]1C(=O)O[C@H](C)[C@H](NC(=O)c2cccc(NC=O)c2O)C(=O)O[C@@H](C)[C@@H]1OC(=O)CC(C)C | 1470 mg/kg
Cc1ccc(=O)n(-c2ccccc2)c1 | 1300 mg/kg
Cc1cncc(CN2CCC(=C3c4ccc(Cl)cc4CCc4cccnc43)CC2)c1 | 1000 mg/kg
C=CCc1ccc(O)c(OC)c1 | 1930 mg/kg
CCCCC(CC)CO[Si](O)(O)O (stereo not given) | 19700 mg/kg
CC(C)C(CCN(C)C)(C(N)=O)c1cccc2ccccc12 (stereo not given) | 1030 mg/kg
C=Cc1ccc(CC)cn1 | 1230 mg/kg
O=Cc1cccc2ccccc12 | 667 mg/kg
C=CC(=O)OC(C)(C)C | 1050 mg/kg
O=NN1CCOCC1 | 282 mg/kg
CCCCOC(=O)C(Cl)(Cl)C(Cl)=C(Cl)Cl | 2090 mg/kg
CCS(=O)(=O)Nc1c(C)cc(OC(=O)NC)cc1C | 780 mg/kg
O=c1nn[nH]c2ccccc12 | 595 mg/kg
Cc1cc(Cl)cc(O)c1O | 1410 mg/kg
C=CC(N)CCC(=O)O (stereo not given) | 3000 mg/kg
C[C@@H](NCCc1ccc(O)cc1)[C@@H](O)c1ccc(O)cc1 (racemic) | 1840 mg/kg
C/N=N/Nc1ccc(Cl)cc1 | 329 mg/kg
c1ccc(N(c2ccccc2)c2ccccc2)cc1 | 3200 mg/kg
CC/C(=C(/CC)c1ccc(OP(=O)(O)O)cc1)c1ccc(OP(=O)(O)O)cc1 | 3000 mg/kg
C=CC(=O)N1CN(C(=O)C=C)CN(C(=O)C=C)C1 | 350 mg/kg
Cc1cc(C)c(C2=C(OC(=O)C(C)(C)C)c3ccccc3C2=O)c(C)c1 | 8000 mg/kg
CCCN(N=O)C(N)=O | 480 mg/kg
CC(=O)OC1CCCCC1C(C)(C)C (stereo not given) | 4600 mg/kg
Cc1cc(C)cc(C(=O)Cl)c1 | 3160 mg/kg

Structure (SMILES) | LD50
C=CN(C(C)=O)c1ccccc1 | 2460 mg/kg
COP(=O)(OC1CCCCC1)Sc1ccc(Cl)cc1 (stereo not given) | 160 mg/kg
COC(OC)C(C)c1ccccc1 (stereo not given) | 1850 mg/kg
CC1COCC(C)N1C(=O)C[n+]1ccc(-c2cc[n+](CC(=O)N3C(C)COCC3C)cc2)cc1 (stereo not given) | 345 mg/kg
CC1=CCC(C(C)C)C=C1 (stereo not given) | 5700 mg/kg
O=c1c(Cl)c(Cl)cnn1-c1ccccc1 | 2520 mg/kg
CC(=O)OCOC(=O)C1=C(COC(N)=O)SC2C(C(C)O)C(=O)N12 (stereo not given) | 7230 mg/kg
BrCc1cccc(Oc2ccccc2)c1 | 2330 mg/kg
COc1ccc(Cl)cc1N/C(=N/C1CCCCC1)c1ccccc1 | 625 mg/kg
OCC1CCCCO1 (stereo not given) | 3730 mg/kg
c1ccc(-c2nnco2)cc1 | 440 mg/kg
Cc1c(-c2ccccc2)oc2c(C(=O)O)cccc2c1=O | 1660 mg/kg
COC(=O)Nc1nc2cc(C(=O)c3ccccc3)ccc2[nH]1 | 714 mg/kg
CCOP(=S)(Oc1ccc(C#N)cc1)c1ccccc1 (stereo not given) | 28.5 mg/kg
CCCN(CCC)C(=O)C(CCC(=O)OCCCOC(=O)Cc1c(C)n(C(=O)c2ccc(Cl)cc2)c2ccc(OC)cc12)NC(=O)c1ccccc1 (stereo not given) | 605 mg/kg
COc1cc(C=CC(=S)N2CCOCC2)cc(OC)c1OC | 1350 mg/kg
C[N+]1(CCC(C2=CCCCC2)c2ccccc2)CCCCC1 (stereo not given) | 1700 mg/kg
CCCC=C(CC)[N+](=O)[O-] | 620 mg/kg
Nc1ccc2c(c1)C(=O)NC(CCCl)O2 (stereo not given) | 1960 mg/kg
COC(=O)C1(O)c2ccccc2-c2ccc(Cl)cc21 (stereo not given) | 3100 mg/kg
CCCCCCCCCC=O | 3730 mg/kg
C[C@H]1OC(O[C@H]2[C@@H](O)CC(O[C@H]3[C@@H](O)CC(O[C@H]4CC[C@@]5(C)[C@H](CC[C@@H]6[C@@H]5CC[C@]5(C)[C@@H](C7=CC(=O)OC7)[C@@H](OC=O)C[C@]65O)C4)O[C@@H]3C)O[C@@H]2C)C[C@H](O)[C@@H]1O (stereo not given in full) | 30 mg/kg
CCSP(=O)(OC)OC | 13.8 mg/kg
CN(C)C1CC(c2ccccc2)c2ccccc21 (stereo not given) | 176 mg/kg
CN(C)N=Nc1ccc(I)cc1 | 574 mg/kg

Structure (SMILES) | LD50
OCC1CC2CC1C1CCC(CO)C21 (stereo not given) | 2250 mg/kg
O=S(=O)(O)c1ccc2c(/N=N\c3ccc(S(=O)(=O)O)c4ccccc34)c(O)c(S(=O)(=O)O)cc2c1 | 6000 mg/kg
COC=CC=C(C#N)C#N | 200 mg/kg
N#CC(Cl)CCl (stereo not given) | 22 mg/kg
CN1CCN(C2=Nc3cc(Cl)ccc3Nc3ccccc32)CC1 | 251 mg/kg
NNc1ccc(N(CCO)CCO)nn1 | 1800 mg/kg
Nc1nccs1 | 480 mg/kg
N=C(N)NCCN1CCCCCCC1 | 1050 mg/kg
C[C@H](O)[C@H](O)[C@H]1CNc2[nH]c(N)nc(=O)c2N1 | 1000 mg/kg
O=C(CS)OCCCCOC(=O)CS | 405 mg/kg
CCCCc1c(C)nc(NCC)nc1OS(=O)(=O)N(C)C | 4000 mg/kg
CCSC(=O)N(CC)CC | 400 mg/kg
CCc1nccnc1C | 600 mg/kg
CCN1CC(CCN2CCOCC2)C(c2ccccc2)(c2ccccc2)C1=O (stereo not given) | 261 mg/kg
C=CN | 1850 mg/kg
NC(=O)C1c2ccccc2C=Cc2ccccc21 | 1800 mg/kg
Clc1ccc(CSC(Cn2cncn2)=Nc2ccc(Cl)cc2Cl)cc1 | 2800 mg/kg
N#Cc1ccc([N+](=O)[O-])cc1C#N | 850 mg/kg
CN(C)S(=O)(=O)CCCCCNC(=O)N(CCCl)N=O | 250 mg/kg
O=C(CCBr)N1CCN(C(=O)CCBr)CC1 | 220 mg/kg
Cc1c(Cl)c(Cl)c2nc(C(F)(F)F)[nH]c2c1Cl | 18.3 mg/kg
CC(C)NCC(O)COc1cccc2c1OCC(O)C2 (stereo not given) | 1840 mg/kg
COc1ccc2c(c1)C13CCCCC1C(C2)N(C)CC3 (stereo not given) | 235 mg/kg
OC[C@H]1O[C@@H]2O[C@H]3[C@H](O)[C@@H](O)[C@@H](O[C@H]4[C@H](O)[C@@H](O)[C@@H](O[C@H]5[C@H](O)[C@@H](O)[C@@H](O[C@H]6[C@H](O)[C@@H](O)[C@@H](O[C@H]7[C@H](O)[C@@H](O)[C@@H](O[C@H]8[C@H](O)[C@@H](O)[C@@H](O[C@H]1[C@H](O)[C@H]2O)O[C@@H]8CO)O[C@@H]7CO)O[C@@H]6CO)O[C@@H]5CO)O[C@@H]4CO)O[C@@H]3CO | 18800 mg/kg
CCC(C)(O)c1ccccc1 (stereo not given) | 1400 mg/kg

Structure (SMILES) | LD50
CCn1c2c(c3cc(N)ccc31)CCCC2 | 198 mg/kg
CCOc1ccc([N+](=O)[O-])cc1 | 3300 mg/kg
CN(C)c1c(Cl)c(Cl)c(Cl)c2nc(C(F)(F)F)[nH]c12 | 22 mg/kg
COc1cc(C(=O)N2CCOCC2)cc(OC)c1OC | 1800 mg/kg
C=CCSSCC=C | 260 mg/kg
CC(C)(CCl)c1cc(Cl)nnc1Cl | 1000 mg/kg
c1ccc(P(c2ccccc2)c2ccccc2)cc1 | 700 mg/kg
O=C(O)c1cc(O)nc(O)n1 | 10900 mg/kg
Cc1ccc(OCC(=O)N[C@@H]2C(=O)N3[C@@H]2SC(C)(C)[C@@H]3C(=O)O)cc1Cl | 2250 mg/kg
COc1c(Cl)c(Cl)c(OC)c2[nH]c(C(F)(F)F)nc12 | 100 mg/kg
C#CC(C)N(C)C(=O)Nc1ccc(Cl)cc1 (stereo not given) | 1790 mg/kg
c1ccc2c(c1)Sc1ccccc1N2CCCN1CCOCC1 | 1000 mg/kg
CCCCCN(C)N=O | 120 mg/kg
CN(C)C1CCc2ccccc2C(Oc2ccc([N+](=O)[O-])cc2)C1 (stereo not given) | 534 mg/kg
CCOC(=O)CC(=O)NP(=O)(OC)SC (stereo not given) | 125 mg/kg
Cl[Si](Cl)(Cl)c1ccccc1 | 2390 mg/kg
CCN(N=O)C(=O)NC(N)=O | 1050 mg/kg
CCOC(=O)CC(=O)CCl | 200 mg/kg
C#CCON=CC1=CCCNC1 | 80 mg/kg
CCOC(=O)CN(C)N=O | 4000 mg/kg
O=C(O)C(Cl)Cl | 5280 mg/kg and 2820 mg/kg
CCC(O)(CC)c1[nH]ncc1Cl | 236 mg/kg
Cc1cc(O)c(C)c(C)c1O | 3200 mg/kg
C=CC(=O)OCCOC(=O)c1ccc(C(=O)O)cc1C(=O)O | 3190 mg/kg
CCCCCCCCOC(CBr)c1ccc(C2CCCC2)cc1 (stereo not given) | 250 mg/kg
